Measured values published in the SangsterLogP compilation.

Row | Structure (SMILES) | logP
1 | CC(C)(S)[C@@H](N)C(=O)O | -1.78
2 | OC1CCCCC1 | 1.23
3 | CCOc1ccccc1O | 1.68
4 | CC(=O)Nc1ccc(I)cc1 | 2.71
5 | O=[N+]([O-])c1cc(Br)c(O)c(Br)c1 | 3.57
6 | Oc1ccnc(S)n1 | -0.28
7 | CCCCCn1nnc2ccccc21 | 3.22
8 | CNc1ccccc1 | 1.66
9 | c1cnccn1 | -0.26
10 | O=C1OC(=O)c2ccccc21 | 1.6
11 | c1ccc2cc3c(ccc4ccccc43)cc2c1 | 5.76
12 | CCc1cccc2ccccc12 | 4.4
13 | O=[N+]([O-])c1ccc(Cl)cc1 | 2.39
14 | c1ccoc1 | 1.34
15 | CCCCCl | 2.64
16 | Fc1ccc(F)cc1 | 2.13
17 | C=CCNCC | 0.81
18 | CC(=O)Nc1ccc(C(=O)O)cc1 | 1.31
19 | O=C(O)c1cccc(Cl)c1 | 2.68
20 | CCCNCC(C)C | 2.07
21 | COP(=O)(OC)OC | -0.65
22 | Cc1ccc2c(c1)c([N+](=O)[O-])cc[n+]2[O-] | 1.43
23 | S=C1NCCN1 | -0.66

Row | Structure (SMILES) | logP
24 | CC(=O)Oc1ccccc1C(=O)O | 1.19
25 | O=NN1CCOCC1 | -0.44
26 | O=C(Nc1ccccc1)c1ccccc1O | 3.27
27 | CCCCCOC(N)=O | 1.35
28 | c1ccc2[nH]ccc2c1 | 2.14
29 | O=c1ccn([C@@H]2O[C@H](CO)[C@@H](O)[C@H]2O)c(=O)[nH]1 | -1.98
30 | Cc1cccc2c([N+](=O)[O-])cc[n+]([O-])c12 | 1.59
31 | N[C@@H](Cc1c[nH]c2ccccc12)C(=O)O | -1.06
32 | Nc1ccc(C(=O)O)c([N+](=O)[O-])c1 | 0.38
33 | OCc1cccc(O)c1 | 0.49
34 | CC=Cc1ccccc1 | 3.35
35 | c1ccc2c(c1)Nc1ccccc1S2 | 4.15
36 | CC(C)[N+](=O)[O-] | 0.93
37 | CN1CCc2cccc3c2C1Cc1ccc(O)c(O)c1-3 (stereo not given) | 2.3
38 | Cc1ccc(C)c2c(C)cccc12 | 4.9
39 | CSc1nnc(C(C)C)c(=O)n1N | 1.01
40 | CCCCCC1Nc2cc(C(F)(F)F)c(S(N)(=O)=O)cc2S(=O)(=O)N1 (stereo not given) | 2.66
41 | Cc1ccc(N(C)C)cc1 | 2.81
42 | CC(=O)OCC1=C(C(=O)O)N2C(=O)[C@@H](NC(=O)Cc3cccs3)[C@H]2SC1 | 0
43 | Nc1cccc(S(N)(=O)=O)c1 | -0.38
44 | CCc1cccc(OCC(=O)O)c1 | 2.25
45 | CCc1ccccc1Cl | 2.95
46 | COC(=O)C(C#N)=NNc1ccccc1C(F)(F)F | 3.7

Row | Structure (SMILES) | logP
47 | O=S(=O)(c1ccccc1)c1ccccc1 | 2.4
48 | Cc1ccccc1N | 1.32
49 | Nc1ncnc2c1ncn2[C@H]1C[C@H](O)[C@@H](CO)O1 | -0.55
50 | CNC(=O)Oc1ccc(F)cc1 | 1.28
51 | Brc1ccc2ncccc2c1 | 2.83
52 | CC(C)NCC(O)c1ccc(NS(C)(=O)=O)cc1 (stereo not given) | 0.24
53 | CCOC(=O)C=Cc1ccccc1 | 2.99
54 | O=c1ccn(C2C=CC(CO)O2)c(=O)[nH]1 (stereo not given) | -1.07
55 | Nc1ccccc1 | 0.9
56 | Nc1ccccc1O | 0.62
57 | CCC1(CC)C(=O)NC(=S)NC1=O | 1.5
58 | O=C(O)c1ccc([N+](=O)[O-])cc1 | 1.89
59 | CCC(C)c1ccccc1OC(=O)NC (stereo not given) | 2.78
60 | N#Cc1ccc(S(N)(=O)=O)cc1 | 0.23
61 | Cc1ccc(C)c(O)c1 | 2.33
62 | Cn1cnc2c1c(=O)[nH]c(=O)n2C | -0.78
63 | c1ccc(Cc2ccccc2)cc1 | 4.14
64 | CCCc1cc(NC(C)=O)cc(CCC)c1O | 3.16
65 | Cc1ccc([N+](=O)[O-])cc1 | 2.37
66 | COc1ccc(N)cc1 | 0.95
67 | O=[N+]([O-])c1cc[n+]([O-])c2ccc(Cl)cc12 | 1.41
68 | Nc1ccc(C(F)(F)F)cc1 | 1.95
69 | Cc1ccc(S(N)(=O)=O)cc1 | 0.82

Row | Structure (SMILES) | logP
70 | NCc1cccnc1 | -0.32
71 | CC1=C(C(=O)Nc2ccccc2)SCCO1 | 2.14
72 | Oc1ncnc2[nH]ncc12 | -0.55
73 | O=C(O)COc1ccc(Cl)cc1Cl | 2.81
74 | N#Cc1ccc(O)cc1 | 1.6
75 | COC(=O)C(C#N)=NNc1cc(C(F)(F)F)ccc1[N+](=O)[O-] | 3.44
76 | CC(N)C(O)c1ccccc1 (stereo not given) | 0.67
77 | O=[N+]([O-])c1ccc2ccc[n+]([O-])c2c1 | 0.36
78 | Cc1ccnc(NS(=O)(=O)c2ccc(N)cc2)n1 | 0.14
79 | CSc1ccccc1 | 2.74
80 | Cc1ncc(CO)c(CN)c1O | -1.3
81 | FC(F)(F)c1ccccc1 | 3.01
82 | O=C(O)c1ccccc1I | 2.4
83 | Nc1nc(N)c2nc(-c3ccccc3)c(N)nc2n1 | 0.98
84 | COc1ccc(CC(C)N)cc1OC (stereo not given) | 1.2
85 | Nc1ccc(C(=O)O)cc1Cl | 1.52
86 | Cc1cccc(C)n1 | 1.68
87 | c1ccc2[nH]cnc2c1 | 1.32
88 | CCC(=O)c1cccc(OC(=O)NC)c1 | 1.49
89 | Oc1ccc(Br)cc1Br | 3.22
90 | O=C(O)CONC(=O)Nc1ccccc1 | 0.26
